Results taken from ChEMBL document CHEMBL1158655, “Plant anticancer agents. IX. Constituents of Hyptis tomentosa” (1979).
Values after ≈ are worked out from the molar mass of the structure shown.

Tested on: KB
Assay: Cytotoxicity against human KB cells
Assay type: functional
Settings: read-out: ED50 (the source's name)

Compound	EC50 [µg/mL]
COc1cc([C@@H]2c3cc4c(cc3C[C@H]3COC(=O)[C@@H]32)OCO4)cc(OC)c1OC [DESOXYPODOPHYLLOTOXIN]	0.032 (≈ 0.0803 µM)
COc1ccc(-c2oc3c(OC)c(OC)c(OC)c(O)c3c(=O)c2OC)cc1 [5-HYDROXYAURANETIN]	1.8 (≈ 4.63 µM)
c1cc2c(cc1[C@H]1OC[C@H]3[C@@H]1CO[C@@H]3c1ccc3c(c1)OCO3)OCO2 [SESAMIN]	> 100
COc1ccc(-c2cc(=O)c3c(O)c(OC)c(OC)cc3o2)cc1O [EUPATORIN]	> 50
COc1ccc(-c2cc(=O)c3c(O)c(OC)c(OC)cc3o2)cc1OC	> 100
COc1ccc(-c2cc(=O)c3c(O)c(OC)c(OC)c(OC)c3o2)cc1 [GARDENIN B]	6 (≈ 16.7 µM)
